Assay results taken from patent US20110105491A1, “THIAZOLIDINE COMPOUNDS AS OREXIN RECEPTOR ANTAGONISTS” (priority 2008, published 2011).
Where two headings read alike, the source gives them in different places.

Tests used:
[1] = tested on: rat model of post-traumatic stress disorder; conditions: cited from earlier work
rat model = conditions: cited from earlier work
rat = conditions: cited from earlier work
human orexin-1 receptor = molecular target: T1, human orexin-1 receptor (Homo sapiens, UniProt O43613); experiment: FLIPR calcium assay of orexin receptor antagonistic activity, CHO cells expressing human orexin-1 receptor; type: cell-based; conditions: read-out: OX1 IC50
T1 construct: expressed in transfected cells; host or cells: Chinese hamster ovary (CHO) cells
T1 sequence (O43613 1-425): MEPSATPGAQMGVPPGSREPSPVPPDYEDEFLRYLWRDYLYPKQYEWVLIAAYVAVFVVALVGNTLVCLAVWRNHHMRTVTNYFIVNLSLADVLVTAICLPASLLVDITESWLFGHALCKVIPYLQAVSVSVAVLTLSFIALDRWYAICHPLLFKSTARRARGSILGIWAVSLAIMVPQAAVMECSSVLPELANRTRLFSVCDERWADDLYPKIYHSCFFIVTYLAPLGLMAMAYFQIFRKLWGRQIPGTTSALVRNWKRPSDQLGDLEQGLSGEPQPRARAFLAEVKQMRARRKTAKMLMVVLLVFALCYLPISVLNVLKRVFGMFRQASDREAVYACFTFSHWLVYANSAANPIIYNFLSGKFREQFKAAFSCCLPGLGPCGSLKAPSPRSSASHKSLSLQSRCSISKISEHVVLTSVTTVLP
Description: (§1) The orexin receptor antagonistic activity of the compounds of formula (I) is determined in accordance with the following experimental method.
(§2) Chinese hamster ovary (CHO) cells expressing the human orexin-1 receptor and the human orexin-2 receptor, respectively, are grown in culture medium (Ham F-12 with L-Glutamine) containing 300 μg/ml G418, […] penicillin, 100 μg/ml streptomycin and 10% heat inactivated fetal calf serum (FCS). The cells are seeded at 20′000 cells/well into 384-well black clear bottom sterile plates (Greiner). The seeded plates are incubated overnight at 37° C. in 5% CO2.
(§3) Human orexin-A as an agonist is prepared as 1 mM stock solution in MeOH:water (1:1), diluted in HBSS containing 0.1% bovine serum albumin (BSA), NaHCO3: 0.375 g/l and 20 mM HEPES for use in the assay at a final concentration of 3 nM.
(§4) Antagonists are prepared as 10 mM stock solution in DMSO, then diluted in 384-well plates using DMSO followed by a transfer of the dilutions into in HBSS containing 0.1% bovine serum albumin (BSA), NaHCO3: 0.375 g/l and 20 mM HEPES. On the day of the assay, 50 μl of staining buffer (HBSS containing 1% FCS, 20 mM HEPES, NaHCO3: 0.375 g/l, 5 mM probenecid (Sigma) and 3 μM of the fluorescent calcium indicator fluo-4 AM (1 mM stock solution in DMSO, containing 10% pluronic) is added to each well. The 384-well cell-plates are incubated for 50 min at 37° C. in 5% CO2 followed by equilibration at rt for 30-120 min before measurement.
(§5) Within the Fluorescent Imaging Plate Reader (FLIPR Tetra, Molecular Devices), antagonists are added to the plate in a volume of 10 μl/well, incubated for 10 min and finally […] of agonist is added. Fluorescence is measured for each well at 1 second intervals, and the height of each fluorescence peak is compared to the height of the fluorescence peak induced by 3 nM orexin-A with vehicle in place of antagonist. For each antagonist, the IC50 value (the concentration of compound needed to inhibit 50% of the agonistic response) is determined and may be normalized using the obtained IC50 value of a on-plate reference compound (normalized values in Table 1 are indicated by an asterisk *). Optimized conditions were achieved by adjustment of pipetting speed and cell splitting regime. The calculated IC50 values of the compounds may fluctuate depending on the daily cellular assay performance. Fluctuations of this kind are known to those skilled in the art.

human orexin-2 receptor = molecular target: T2, human orexin-2 receptor (Homo sapiens, UniProt O43614); experiment: FLIPR calcium assay of orexin receptor antagonistic activity, CHO cells expressing human orexin-2 receptor; type: cell-based; conditions: read-out: OX2 IC50
T2 construct: expressed in transfected cells; host or cells: Chinese hamster ovary (CHO) cells
T2 sequence (O43614 1-444): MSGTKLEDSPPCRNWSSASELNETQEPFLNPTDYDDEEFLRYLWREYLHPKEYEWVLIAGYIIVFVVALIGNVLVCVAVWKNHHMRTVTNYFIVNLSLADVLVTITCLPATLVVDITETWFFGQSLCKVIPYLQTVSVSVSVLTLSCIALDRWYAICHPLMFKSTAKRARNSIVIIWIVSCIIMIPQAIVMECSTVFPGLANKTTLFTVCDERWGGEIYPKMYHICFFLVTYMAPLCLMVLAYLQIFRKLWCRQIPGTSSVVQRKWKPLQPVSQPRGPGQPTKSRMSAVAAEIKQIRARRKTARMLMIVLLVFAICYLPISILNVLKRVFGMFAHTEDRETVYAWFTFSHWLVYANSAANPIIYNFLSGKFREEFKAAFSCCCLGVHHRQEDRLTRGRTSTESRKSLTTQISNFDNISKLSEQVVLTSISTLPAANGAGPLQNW
Description: as §1, §2, §3, §4, §5

[2] = 3 nM orexin-A as agonist, not normalized, *2/*3 = geometric mean of n = 2/3 values

SMILES	IC50 (human orexin-1 receptor; [2]) [nM]	IC50 (human orexin-2 receptor; [2]) [nM]	further results
CNC(=O)[C@@H](c1ccccc1)N1CCc2cc(OC)c(OC)cc2[C@@H]1CCc1ccc(C(F)(F)F)cc1 [(2R)-2-{(1S)-6,7-dimethoxy-1-[2-(4-trifluoromethyl-phenyl)-ethyl]-3,4-dihydro-1H-isoquinolin-2-yl}-N-methyl-2-phenyl-acetamide]			activity in model of post-traumatic stress disorder [1]: active; memory function (rat model): enhance memory function; alertness (active wake and locomotion) (rat): decrease alertness; time spent in REM and NREM sleep (rat): dose-dependently increase the time spent in both REM and NREM sleep
Cc1cccc(-c2sc(C)nc2C(=O)N2CCSC2CNC(=O)c2cccc3ocnc23)c1 (racemic) [Example 17, rac-Benzooxazole-4-carboxylic acid [3-(2-methyl-5-m-tolyl-thiazole-4-carbonyl)thiazolidin-2-ylmethyl]-amide]	4	6	
COc1ncccc1C(=O)NCC1SCCN1C(=O)c1nc(C)sc1-c1cccc(C)c1 (racemic) [Example 160, rac-2-Methoxy-N-[3-(2-methyl-5-m-tolyl-thiazole-4-carbonyl)-thiazolidin-2-ylmethyl]-nicotinamide]			IC50 (human orexin-1 receptor): 4 nM; IC50 (human orexin-2 receptor): 15 nM
COc1cccc(-c2oc(C)nc2C(=O)N2CCSC2CNC(=O)c2cccc3ncsc23)c1 (racemic) [Example 104, rac-Benzothiazole-7-carboxylic acid {3-[5-(3-methoxy-phenyl)-2-methyl-oxazole-4-carbonyl]-thiazolidin-2-ylmethyl}-amide]	7	8	
Cc1cccc(-c2sc(N(C)C)nc2C(=O)N2CCSC2CNC(=O)c2cccc3c2CCO3)c1 (racemic) [Example 128, rac-2,3-Dihydro-benzofuran-4-carboxylic acid [3-(2-dimethylamino-5-m-tolyl-thiazole-4-carbonyl)-thiazolidin-2-ylmethyl]-amide]	12	14	
Cc1cccc(-c2sc(C)nc2C(=O)N2CCSC2CNC(=O)c2ccc(C(F)(F)F)c3oc(C)cc23)c1 (racemic) [Example 11, rac-2-Methyl-7-trifluoromethyl-benzofuran-4-carboxylic acid [3-(2-methyl-5-m-tolyl-thiazole-4-carbonyl)-thiazolidin-2-ylmethyl]-amide]	17	63	

More lines, main results first:

IC50 (human orexin-1 receptor; [2]) [nM]	IC50 (human orexin-2 receptor; [2]) [nM]	SMILES	further results
14	11	Cc1cccc(-c2oc(C)nc2C(=O)N2CCSC2CNC(=O)c2cccc3ncsc23)c1 (racemic) [Example 83, rac-Benzothiazole-7-carboxylic acid [3-(2-methyl-5-m-tolyl-oxazole-4-carbonyl)-thiazolidin-2-ylmethyl]-amide]	
23	68	Cc1nc(C(=O)N2CCSC2CNC(=O)c2cccc3c2OCCO3)c(-c2cccc(F)c2)o1 (racemic) [Example 95, rac-2,3-Dihydro-benzo[1,4]dioxine-5-carboxylic acid {3-[5-(3-fluoro-phenyl)-2-methyl-oxazole-4-carbonyl]-thiazolidin-2-ylmethyl}-amide]	
12	10	Cc1ccc(-c2ccccc2C(=O)N2CCSC2CNC(=O)c2cccc3ncsc23)cc1C (racemic) [Example 72, rac-Benzothiazole-7-carboxylic acid [3-(3′,4′-dimethyl-biphenyl-2-carbonyl)-thiazolidin-2-ylmethyl]-amide]	
8	86	Cc1nc(-c2ccc(F)cc2)c(C(=O)N2CCSC2CNC(=O)c2nn(C)c3ccccc23)s1 (racemic) [Example 39, rac-1-Methyl-1H-indazole-3-carboxylic acid {3-[4-(4-fluoro-phenyl)-2-methyl-thiazole-5-carbonyl]-thiazolidin-2-ylmethyl}-amide]	
